Measurements as given in US20170189444A1, “POLYMERIC COMPOSITIONS AND RELATED SYSTEMS AND METHODS FOR REGULATING BIOLOGICAL HYDROGELS” (CALIFORNIA INSTITUTE OF TECHNOLOGY, priority 2016, published 2017).

Assays:
colonic mucus hydrogel [1] = assay: Ex vivo polymer-induced compression of washed colonic mucus hydrogel (1 μm microparticle method); design: species or system mice; settings: 500 mM acetate
Description: Each mouse was euthanized; the colon was removed and immediately flushed gently with ice-cold 1× PBS, and placed ˜1 cm long segments of the mid-colon in ice-cold PBS. […] The hydrogel thickness was detected through imaging of the washed tissue. […] This ensured that the microparticles deposited onto the mucus hydrogel surface. both the epithelium and the deposited microparticles were simultaneously imaged using confocal or two-photon reflectance microscopy. After measuring the initial washed mucus thickness, ˜0.2-2mL of the test polymer solution was gently deposited onto the exposed luminal surface and then collected the same 3D stacks at the same xy fields of view To measure the “percent compression”, or the overall percentage change in the thickness, of the colonic mucus after exposure to the polymer solution, the thickness was measured before and after exposure to the solution at the same five xy positions, using the distance between the epithelial surface and the deposited microparticles in the 3D stacks. To calculate the percentage compression, the percentage change in the thickness measured was calculated, as well as the measurement uncertainty (using the optical slice thickness as the experimental uncertainty in the measured thickness), at each of these five xy positions. The percentage compression was calculated as the mean of these five measured values. […]

colonic mucus hydrogel [2] = assay: Ex vivo penetration or exclusion of probes and polymers in adherent colonic mucus hydrogel; design: species or system mice; settings: washed explant, incubated 1-2 h at 4° C.

Row | Molecule | mucus compression (colonic mucus hydrogel [1]) | penetration into or exclusion from adherent mucus hydrogel (colonic mucus hydrogel [2]) | penetration into or exclusion from adherent mucus hydrogel (colonic mucus hydrogel [2]; listed as Fluorescent PEG 200 kDa)
1 | CC(=O)O [acetate] | ≈ 10% | – | –
2 | FITC-dextran [fluorescent dextran 2 MDa] | – | penetrate the hydrogel | –
3 | Methoxyl polyethylene glycol-FITC [mPEG-FITC 200k] | – | Penetration of mucus | penetrate the hydrogel
